We go through 5 compounds from US20260001928A1 (CORTERIA PHARMACEUTICALS, priority 2022, published 2026).

Assay [1] concerns the target T1, human CRF2a receptor (Homo sapiens, UniProt Q13324).
T1 construct: expressed in transfected cells; host or cells: TeloHEAC cells
T1 sequence (Q13324 1-411): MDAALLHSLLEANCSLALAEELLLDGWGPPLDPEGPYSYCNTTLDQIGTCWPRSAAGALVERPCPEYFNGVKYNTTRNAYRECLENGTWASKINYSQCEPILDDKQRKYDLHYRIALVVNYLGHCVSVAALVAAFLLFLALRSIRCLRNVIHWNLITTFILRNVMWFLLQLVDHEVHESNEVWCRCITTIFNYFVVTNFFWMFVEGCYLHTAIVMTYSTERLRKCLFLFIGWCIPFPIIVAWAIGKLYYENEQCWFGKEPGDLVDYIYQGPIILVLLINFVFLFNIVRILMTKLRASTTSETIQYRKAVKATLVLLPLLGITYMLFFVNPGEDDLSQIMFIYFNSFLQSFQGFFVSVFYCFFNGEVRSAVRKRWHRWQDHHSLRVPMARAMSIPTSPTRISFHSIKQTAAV
In words: Activity at human CRF2a receptor, cAMP functional assay in TeloHEAC cells. The following applies: TeloHEAC cells stably expressing human CRF2a receptor, relative to urocortin 2 (100 nM = 100%). It counts as cell-based. The method in brief:
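TeloHEAC cells stably expressing human CRF2a (10000 cells/well) were treated with 16-point 1:2 compound dilutions in HBSS/20 mM HEPES with IBMX for 30 min at 37° C. cAMP was read by HTRF (665/620 nm ratio). EC50 was the concentration giving 50% activation, with 100 nM urocortin 2 set as 100%.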

For assay [2], the target named is T2, CFR1R receptor (Homo sapiens, UniProt P34998).
T2 construct: host or cells: CHO-K1 (clone 2)
T2 sequence (P34998 24-415): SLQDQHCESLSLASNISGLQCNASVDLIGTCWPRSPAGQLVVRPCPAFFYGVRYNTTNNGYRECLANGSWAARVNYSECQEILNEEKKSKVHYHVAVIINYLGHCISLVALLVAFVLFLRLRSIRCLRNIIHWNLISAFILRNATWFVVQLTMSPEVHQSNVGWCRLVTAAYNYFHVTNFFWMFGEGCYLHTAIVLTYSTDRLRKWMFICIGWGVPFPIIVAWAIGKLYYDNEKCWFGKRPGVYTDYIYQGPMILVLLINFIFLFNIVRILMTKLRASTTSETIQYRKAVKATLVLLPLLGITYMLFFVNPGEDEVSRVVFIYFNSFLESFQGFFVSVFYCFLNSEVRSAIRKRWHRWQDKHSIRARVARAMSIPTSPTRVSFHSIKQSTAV
In words: Activity at anti-target CFR1R receptor, cAMP assay in CRF1R-overexpression CHO-K1 cells. It is filed as cell-based. Particulars: 100% = Sauvagine at 100 nM; for EC50: cAMP. The method in brief:
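The method mirrors that used with TeloHAEC cells. Here, thawed clone 2 cells seeded at 4000 cells/well are tested, and 100 nM Sauvagine sets the top of the activation scale.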
In general terms: Cyclic AMP is a second messenger, typically raised through Gs and lowered through Gi signalling.

*1 amine or outer side, *2 acyl side, *3 side chain or, on linkers, in order; H or OH if unused. Where a SMILES comes first, the peptide text is derived from it. Side-chain parts run from the residue outwards. [ ]: non-standard residue; d: D form. The star is where a group is joined. γGlu = O=C(O)[C@H](CCC(=O)[*:2])N[*:1]; C14 diacid = O=C(O)CCCCCCCCCCCCC(=O)*; C12 diacid = O=C(O)CCCCCCCCCCC(=O)*; Api = NC1(C(=O)O)CCNCC1; Pentanoyl = CCCCC(=O)*; AEEA = NCCOCCOCC(=O)O; Aib = CC(C)(N)C(=O)O

As to `CCCCC(=O)N[C@H](C(=O)N[C@@H](CC(C)C)C(=O)N[C@@H](CO)C(=O)N[C@@H](CC(C)C)C(=O)N[C@@H](CC(=O)O)C(=O)N[C@@H](C(=O)N1CCC[C@H]1C(=O)N[C@H](C(=O)N[C@@H](CCCCN)C(=O)N[C@@H](CC(C)C)C(=O)N[C@@H](CCCCNC(=O)COCCOCCNC(=O)COCCOCCNC(=O)CC[C@H](NC(=O)CCCCCCCCCCCCC(=O)O)C(=O)O)C(=O)N[C@@H](CCCCN)C(=O)N[C@H](C(=O)N[C@@H](CC(C)C)C(=O)N[C@@H](CC(C)C)C(=O)N[C@@H](CCC(=O)O)C(=O)N[C@@H](CCC(N)=O)C(=O)N[C@@H](CCC(=O)O)C(=O)N[C@@H](CCCCN)C(=O)N[C@@H](CCC(N)=O)C(=O)N[C@@H](CCCCN)C(=O)N[C@@H](CCCCN)C(=O)N[C@@H](CCC(N)=O)C(=O)N[C@@H](CCCNC(=N)N)C(=O)N[C@@H](CCC(=O)O)C(=O)N[C@@H](CCC(N)=O)C(=O)N[C@@H](C)C(=O)N[C@@H](CCC(=O)O)C(=O)N[C@H](C(=O)N[C@@H](CC(N)=O)C(=O)NC(C)(C)C(=O)N[C@@H](CCC(N)=O)C(=O)N[C@H](C(=O)N[C@@H](CC(C)C)C(=O)N[C@@H](C)C(=O)N[C@@H](CCC(N)=O)C(=O)N[C@H](C(N)=O)C(C)C)[C@@H](C)CC)[C@@H](C)O)[C@@H](C)CC)[C@@H](C)CC)C(C)C)C(C)C` [compound 180] (Pentanoyl-VLSLD[dV]PIKLK([AEEA-AEEA-γGlu-C14 diacid])KILLEQEKQKKQREQAETN[Aib]QILAQV-NH2), the concentration for a half-maximal effect (EC50) (commonly the concentration at which the effect is half-maximal) in assay [1] is 10.7 nM. Also, in assay [2], the “Emax (% I)” value amounted to 2 % I and the EC50 is > 250 nM.

For the compound `CCCCC(=O)N[C@H](C(=O)N[C@@H](CC(C)C)C(=O)N[C@@H](CO)C(=O)N[C@@H](CC(C)C)C(=O)N[C@@H](CC(=O)O)C(=O)N[C@@H](C(=O)N1CCC[C@H]1C(=O)N[C@H](C(=O)N[C@@H](CCCCN)C(=O)N[C@@H](CC(C)C)C(=O)N[C@@H](CCCCNC(=O)COCCOCCNC(=O)COCCOCCNC(=O)CC[C@H](NC(=O)CC[C@H](NC(=O)CCCCCCCCCCCCC(=O)O)C(=O)O)C(=O)O)C(=O)N[C@@H](CCCCN)C(=O)N[C@H](C(=O)N[C@@H](CC(C)C)C(=O)N[C@@H](CC(C)C)C(=O)N[C@@H](CCC(=O)O)C(=O)N[C@@H](CCC(N)=O)C(=O)N[C@@H](CCC(=O)O)C(=O)N[C@@H](CCCCN)C(=O)N[C@@H](CCC(N)=O)C(=O)N[C@@H](CCCCN)C(=O)N[C@@H](CCCCN)C(=O)N[C@@H](CCC(N)=O)C(=O)N[C@@H](CCCNC(=N)N)C(=O)N[C@@H](CCC(=O)O)C(=O)N[C@@H](CCC(N)=O)C(=O)N[C@@H](C)C(=O)N[C@@H](CCC(=O)O)C(=O)N[C@H](C(=O)N[C@@H](CC(N)=O)C(=O)NC(C)(C)C(=O)N[C@@H](CCC(N)=O)C(=O)N[C@H](C(=O)N[C@@H](CC(C)C)C(=O)N[C@@H](C)C(=O)N[C@@H](CCC(N)=O)C(=O)N[C@H](C(N)=O)C(C)C)[C@@H](C)CC)[C@@H](C)O)[C@@H](C)CC)[C@@H](C)CC)C(C)C)C(C)C` [compound 181] (Pentanoyl-VLSLD[dV]PIKLK([AEEA-AEEA-γGlu-γGlu-C14 diacid])KILLEQEKQKKQREQAETN[Aib]QILAQV-NH2), the EC50 in assay [1] was 24.7 nM. In addition, in assay [2], the “Emax (% I)” value is reported as 9 % I and the EC50 was > 250 nM.

For `CC[C@H](C)[C@H](NC(C)=O)C(=O)N[C@H](C(=O)N[C@@H](CC(C)C)C(=O)N[C@@H](CO)C(=O)N[C@@H](CC(C)C)C(=O)N[C@@H](CC(=O)O)C(=O)N[C@@H](C(=O)N1CCC[C@H]1C(=O)N[C@H](C(=O)N[C@@H](CCCCN)C(=O)N[C@@H](CC(C)C)C(=O)N[C@@H](CCCCNC(=O)CC[C@H](NC(=O)CCCCCCCCCCC(=O)O)C(=O)O)C(=O)N[C@@H](CCCCN)C(=O)N[C@H](C(=O)N[C@@H](CC(C)C)C(=O)N[C@@H](CC(C)C)C(=O)N[C@@H](CCC(=O)O)C(=O)N[C@@H](CCC(N)=O)C(=O)N[C@@H](CCC(=O)O)C(=O)N[C@@H](CCCCN)C(=O)N[C@@H](CCC(N)=O)C(=O)N[C@@H](CCCCN)C(=O)N[C@@H](CCCCN)C(=O)N[C@@H](CCC(N)=O)C(=O)N[C@@H](CCCNC(=N)N)C(=O)N[C@@H](CCC(=O)O)C(=O)N[C@@H](CCC(N)=O)C(=O)N[C@@H](C)C(=O)N[C@@H](CCC(=O)O)C(=O)N[C@H](C(=O)N[C@@H](CC(N)=O)C(=O)NC(C)(C)C(=O)N[C@@H](CCC(N)=O)C(=O)N[C@H](C(=O)N[C@@H](CC(C)C)C(=O)N[C@@H](C)C(=O)N[C@@H](CCC(N)=O)C(=O)N[C@H](C(N)=O)C(C)C)[C@@H](C)CC)[C@@H](C)O)[C@@H](C)CC)[C@@H](C)CC)C(C)C)C(C)C` [compound 182] (Ac-IVLSLD[dV]PIKLK([γGlu-C12 diacid])KILLEQEKQKKQREQAETN[Aib]QILAQV-NH2), the figures for the EC50 in assay [1] and in assay [2] were 1.88 nM and > 250 nM, respectively. In addition, the “Emax (% I)” value in assay [2] is reported as 1 % I.

On to `CC[C@H](C)[C@H](NC(C)=O)C(=O)N[C@H](C(=O)N[C@@H](CC(C)C)C(=O)N[C@@H](CO)C(=O)N[C@@H](CC(C)C)C(=O)N[C@@H](CC(=O)O)C(=O)N[C@@H](C(=O)N1CCC[C@H]1C(=O)N[C@H](C(=O)N[C@@H](CCCCN)C(=O)N[C@@H](CC(C)C)C(=O)N[C@@H](CCCCNC(=O)CC[C@H](NC(=O)CCCCCCCCCCC(=O)O)C(=O)O)C(=O)N[C@@H](CCCCN)C(=O)N[C@H](C(=O)N[C@@H](CC(C)C)C(=O)N[C@@H](CC(C)C)C(=O)N[C@@H](CCC(=O)O)C(=O)N[C@@H](CCC(N)=O)C(=O)N[C@@H](CCC(=O)O)C(=O)N[C@@H](CCCCN)C(=O)N[C@@H](CCC(N)=O)C(=O)N[C@@H](CCCCN)C(=O)N[C@@H](CCCCN)C(=O)N[C@@H](CCC(N)=O)C(=O)N[C@@H](CCCNC(=N)N)C(=O)N[C@@H](CCC(=O)O)C(=O)N[C@@H](CCC(N)=O)C(=O)N[C@@H](C)C(=O)N[C@@H](CCC(=O)O)C(=O)N[C@H](C(=O)N[C@@H](CC(N)=O)C(=O)NC1(C(=O)N[C@@H](CCC(N)=O)C(=O)N[C@H](C(=O)N[C@@H](CC(C)C)C(=O)N[C@@H](C)C(=O)N[C@@H](CCC(N)=O)C(=O)N[C@H](C(N)=O)C(C)C)[C@@H](C)CC)CCNCC1)[C@@H](C)O)[C@@H](C)CC)[C@@H](C)CC)C(C)C)C(C)C` [compound 183] (Ac-IVLSLD[dV]PIKLK([γGlu-C12 diacid])KILLEQEKQKKQREQAETN[Api]QILAQV-NH2), for which a half-maximal response in assay [1] (EC50) required 2.47 nM. In addition, in assay [2], the “Emax (% I)” value was determined as 11 % I and the 50% effective concentration (EC50) is > 250 nM.

`CC[C@H](C)[C@H](NC(C)=O)C(=O)N[C@H](C(=O)N[C@@H](CC(C)C)C(=O)N[C@@H](CO)C(=O)N[C@@H](CC(C)C)C(=O)N[C@@H](CC(=O)O)C(=O)N[C@@H](C(=O)N1CCC[C@H]1C(=O)N[C@H](C(=O)N[C@@H](CCCCN)C(=O)N[C@@H](CC(C)C)C(=O)N[C@@H](CCCCNC(=O)CC[C@H](NC(=O)CCCCCCCCCCC(=O)O)C(=O)O)C(=O)N[C@@H](CCCCN)C(=O)N[C@H](C(=O)N[C@@H](CC(C)C)C(=O)N[C@@H](CC(C)C)C(=O)N[C@@H](CCC(=O)O)C(=O)N[C@@H](CCC(N)=O)C(=O)N[C@@H](CCC(=O)O)C(=O)N[C@@H](CCCCN)C(=O)N[C@@H](CCC(N)=O)C(=O)N[C@@H](CCCCN)C(=O)NC(C)(C)C(=O)N[C@@H](CCC(N)=O)C(=O)N[C@@H](CCCNC(=N)N)C(=O)N[C@@H](CCC(=O)O)C(=O)N[C@@H](CCC(N)=O)C(=O)N[C@@H](C)C(=O)N[C@@H](CCC(=O)O)C(=O)N[C@H](C(=O)N[C@@H](CC(N)=O)C(=O)NC1(C(=O)N[C@@H](CCC(N)=O)C(=O)N[C@H](C(=O)N[C@@H](CC(C)C)C(=O)N[C@@H](C)C(=O)N[C@@H](CCC(N)=O)C(=O)N[C@H](C(N)=O)C(C)C)[C@@H](C)CC)CCNCC1)[C@@H](C)O)[C@@H](C)CC)[C@@H](C)CC)C(C)C)C(C)C` [compound 184] (Ac-IVLSLD[dV]PIKLK([γGlu-C12 diacid])KILLEQEKQK[Aib]QREQAETN[Api]QILAQV-NH2) yielded an EC50 in assay [1] of 4.25 nM. Moreover, in assay [2], the “Emax (% I)” value came out at 3 % I and the EC50 is > 250 nM.
